Measured values as given in patent US20170328922A1, “METHODS AND PRODUCTS FOR LABELLING LIPIDS” (UNIVERSITY OF SOUTH AUSTRALIA, priority 2014, published 2017).

Tests used:
[1] = test system: Drosophila fat body cells; experiment: Live tissue staining with rhenium molecular probes (Examples 10, 13); type: cell-based
Experimental: (§1) Probes were dissolved in DMSO to obtain a stock solution with a concentration of 10 mM. Stock solutions were stored at room temperature in a dark place. Working solutions were prepared only at the time of use as the probe has reduced solubility in aqueous solutions. A Working solution was a dilution 1/1000 to 1/500 of the stock in DMSO to PBS or cell medium, and as such the percentage of DMSO used in actual cell experiments was less than 1%.
(§2) For tissues, the tissues were isolated in PBS (or other physiological media) and mounted on a coverslip. For cells, these were grown as per normal practice on coverslips.
(§3) The media was removed media and replaced with 10-20 μM solution of molecular probes in PBS (or appropriate physiological media/cell media) at a dilution of stock solution from 1/1000-1/500, for 15-30 minutes at physiologically appropriate temperature (37° C. for cell culture or 25° C. for insect larvae). […] If foetal calf serum is necessary for cell health, an increased incubation time may be necessary to obtain adequate staining.
The samples were washed for one minute in PBS. If co-staining was performed, the samples were washed in PBS for 30 seconds, before incubating with counterstain.
Tissues were mounted in optical coupling gel, such as carbomer-940 (Snowdrift farm, Tucson, USA) based gel to prevent dehydration prior to imaging and maintain tissue integrate (Rothstein, E. C., Nauman, M., Chesnick S., Balaban R. S., 2006, Multi-photon excitation microscopy in intact animals Journal of Microscopy 222, 58, 64). For cells, the coverslip was mounted in PBS for immediate imaging.
Samples were imaged immediately following staining.
Rhenium molecular probes were? excited at 800-830 nm using a two-photon pulse laser or 405 steady state laser and detection in the range of 490-670 nm, with an emission maxima at around 570.
Micrographs of 3T3 L1, 453 cells and CHOK1 cells and Drosophila fat body tissue stained with rhenium molecular probes, PhenCyan top, PhenPyridyl bottom are shown in FIG. 10. […] Left: confocal images; Right: fluorescence microscopy images. […]

[2] = Rhenium molecular probe-lipid overlay (dot blot); type: binding; parameters: key to interaction with Cholestrol (dot blot): ✓ indicates a positive interaction; x indicates no interaction
Experimental: (§4) The experimental protocol probe-lipid overlay was as follows: 50 μM of each lipids was loaded on to PVDF membranes (Perkin Elmer, USA), which were then incubated with molecular probes. PhenCyano and PhenPyridyl were assessed against eleven lipids including; sphingomyelin (Cat # S0756, Sigma Aldrich, USA), sphingosine (Cat # S7049; Sigma Aldrich, USA), L-phosphatidylethanolamine (Cat # P7943, Sigma Aldrich, USA), monosialodanglioside (GM1; Cat # G7641, Sigma Aldrich, USA), oleoly-L-?-lysophosphatidic acid (Cat # L7260, Sigma Aldrich, USA), palmitic acid (Cat # P5917, Sigma Aldrich, USA), sphingomyelin (Cat # S0756, Sigma Aldrich, USA), sphingosine (Cat # S7049; Sigma Aldrich, USA), L-?-phosphatidylethanolamine (Cat # P7943, Sigma Aldrich, USA), monosialodanglioside (GM1; Cat # G7641, Sigma Aldrich, USA), progesterone (Cat #102722, MP Biomedical, USA), ceramide (Cat # C2137; Sigma Aldrich, USA), triacylglycerol mix C2-C10 (Cat #17810, Sigma Aldrich, USA) and cholesteryl acetate (Cat #151114; Sigma Aldrich, USA).
(§5) All other molecular probes were assessed against a panel of six lipids including; sphingomyelin (Cat # S0756, Sigma Aldrich, USA), sphingosine (Cat # S7049; Sigma Aldrich, USA), L-?-phosphatidylethanolamine (Cat # P7943, Sigma Aldrich, USA), monosialodanglioside (GM1; Cat # G7641, Sigma Aldrich, USA), sphingomyelin (Cat # S0756, Sigma Aldrich, USA), sphingosine (Cat # S7049; Sigma Aldrich, USA), L-?-phosphatidylethanolamine (Cat # P7943, Sigma Aldrich, USA), monosialodanglioside (GM1; Cat # G7641, Sigma Aldrich, USA) and triacylglycerol mix C2-C10 (Cat #17810, Sigma Aldrich, USA).
(§6) Lipids were dissolved in ethanol, methanol or isopropanol for loading depending on solubility. Following lipid loading, membranes were left to dry for 20-30 minutes, then they were washed for 10 minutes in cold 10% ethanol, before they were incubated with 10 μM solution of each Rhenium molecular probe in cold 10% ethanol for one hour. Membranes were than washed four times for 10 minutes in cold 10% ethanol prior to imaging. Imaging was performed on an Image Quant Las 4000 (GE, Sweden) luminescent image analyser, with the Rhenium molecular probe being detected by excitation at 460 nm using an epi-blue light source, and detected using an 575 nm ethidium bromide filter.

3T3 L1 cells = experiment: Live cell staining with rhenium molecular probes; type: cell-based; details: live samples, 10-20 μM probe
Experimental: as §1, §2, §3
The samples were washed for one minute in PBS. […]
Micrographs of 3T3 L1, 453 cells and CHOK1 cells and Drosophila fat body tissue stained with rhenium molecular probes, PhenCyan top, PhenPyridyl bottom are shown in FIG. 10. […] Left: confocal images; Right: fluorescence microscopy images.

[3] = Rhenium molecular probe-lipid overlay (dot blot); type: binding; parameters: key to interaction with PE (dot blot): ✓ indicates a positive interaction; x indicates no interaction
Experimental: as §4, §5, §6

[4] = 10 μM probe, 50 μM lipid on PVDF membrane

Structure (SMILES): N#Cc1ccc(-c2nn[n]([Re](=[C]=O)(=[C]=O)=[C]=O)n2)cc1.c1cnc2c(c1)ccc1cccnc12 [PhenCyano, Triscarbonyl phenanthroline (4-cyanophenyltetrazolato)Rhenium(I)]
- emission spectral profile in the acidic compartment versus lipid droplet ([1]; +2 h PF, following autophagic inducement): blue shift and an increase in emission intensity
- staining pattern in Drosophila fat body cells ([1]; live samples, 10-20 μM probe): distribution consistent with lipid droplet staining
- interaction with Cholestrol (dot blot) [2, 4]: ✓
- affinity towards cholesterol, in words ([2]; FIG. 7 / FIG. 8): some affinity
- staining pattern in 3T3 L1 cells (3T3 L1 cells): distribution consistent with lipid droplet staining
- interaction with PE (dot blot) [3, 4]: ✓
- affinity towards phosphatidylethanolamine (PE), in words ([3]; FIG. 7 / FIG. 8): some affinity
